The values below come from publication PMC6270246, “Anthraquinones of the Roots of Pentas micrantha” (Molecules, 2012).

Data set [1] deals with Sierra Leone D6 chloroquine-sensitive Plasmodium falciparum strain. Further details: method as in PMID 21979929. To be noted: P. falciparum D6 strain; in vitro; bioactivity previously published; cited from earlier work.
Data set [2] relates to MCF-7 human breast cancer cells. Further details: method as in PMID 21979929. Conditions: MCF-7 cells; bioactivity previously published; read-out: CC50 (cytotoxic concentration); cited from earlier work.
The subject of data set [3] is Indochina W2 chloroquine-resistant Plasmodium falciparum strain. More on the design: method as in PMID 21979929. Conditions: P. falciparum W2 strain; in vitro; bioactivity previously published; cited from earlier work.
Data set [4] has the same test system. Description: Malaria SYBR Green I-based in vitro drug susceptibility assay, W2 strain. Type of data set: cell-based. As for the experimental part:
(§1) For cytotoxicity (CC50) assay 1-isopropyl-3-(pyridin-4-ylethynyl)-1H-pyrazolo[3,4-d]pyrimidin-4-amine was used as reference substance.
(§2) Sierra Leone D6 chloroquine-sensitive and the Indochina W2 chloroquine-resistant Plasmodium falciparum strains (donated by the Walter Reed Army Institute for Research [WRAIR], 503 Robert Grant Avenue, Silver Spring, MD 20910, USA) were maintained in continuous culture to attain replication robustness prior to assays. Drug susceptibility was tested by the Malaria SYBR Green I-based in vitro assay technique.

For data set [5], the system named is Sierra Leone D6 chloroquine-sensitive Plasmodium falciparum strain. The experiment in a line: Malaria SYBR Green I-based in vitro drug susceptibility assay, D6 strain. Type of data set: cell-based. As for the experimental part: as §1, §2
Data set [6] can be described thus: Cytotoxicity assay (PrestoBlue cell viability, 48 h). The data set is classed as cell-based. To be noted: human, MCF-7 breast cancer cells, MCF-7 cells, mean of at least six independent experiments, read-out: CC50 (cytotoxic concentration). As for the experimental part:
MCF-7 human breast cancer cells were cultured in Dulbecco’s modified eagle medium (DMEM) supplemented with 10% (v/v) fetal bovine serum, 2 mM L-glutamine, 100 units/mL penicillin and 100 µg/mL streptomycin at 37 °C in humidified 5% CO2. For cytotoxicity assays, cells were seeded in 96-well plates at optimal cell density to ensure exponential growth for the duration of the assay. After a 24-h preincubation growth, the medium was replaced with experimental medium containing the appropriate drug concentrations or vehicle controls (0.1% or 1.0% v/v DMSO). After 48 h incubation, cell viability was measured using PrestoBlue™ Cell Viability Reagent (Invitrogen Ab, Lidingö, Sweden) according to the manufacturer’s instructions. […] Results were expressed as the mean ± standard error for six replicates as a percentage of vehicle control (taken as 100%). Experiments were performed independently at least six times. Statistical analyses were performed using a two-tailed Student’s t-test. p < 0.05 was considered to be statistically significant.

Where two headings read alike, the source gives them in different places.

With `COc1c(C=O)c(O)cc2c1C(=O)c1ccccc1C2=O` [Compound 7, damnacanthal], the IC50 – broadly, the point on the concentration scale where inhibition reaches its midpoint – in data set [1] was 27.2 µM; in data set [3], 38.6 µM. Besides, the CC50 in data set [2] was 316 µM.
`OC(c1cc(C(F)(F)F)nc2c(C(F)(F)F)cccc12)C1CCCCN1` (centres unmarked) [mefloquine]: the IC50 came to 0.00665 µM in data set [4] (P. falciparum W2 strain, positive controls, read-out: IC50 (W2)) and 0.0876 µM in data set [5] (P. falciparum D6 strain, positive controls, read-out: IC50 (D6)).
Turning to `COc1c(CO)c(O)cc2c1C(=O)c1ccccc1C2=O` [Compound 3, damnacanthol], the IC50 in data set [1] was 56.6 µM; in data set [3] it was 110.6 ± 0.01 µM. In addition, in data set [2], the CC50 was 238 µM.
`CC(C)n1nc(C#Cc2ccncc2)c2c(N)ncnc21` [1-isopropyl-3-(pyridin-4-ylethynyl)-1H-pyrazolo[3,4-d]pyrimidin-4-amine, reference compound]: in data set [6], the CC50 at 48 h came to 5 µM.
In the case of `COCc1c(O)cc2c(c1O)C(=O)c1ccccc1C2=O` [Compound 2, lucidin-ω-methyl ether], the IC50 in data set [1] is 42.54 ± 0.01 µM; in data set [3], 46.44 ± 0.01 µM. In data set [2], the CC50 was over 352 µM.
`COc1c(CO)c(O)cc2c1C(=O)c1ccc(O)c(O)c1C2=O` [Compound 8, 5,6-dihydroxydamnacanthol]: the IC50 in data set [1] was 47.53 ± 0.01 µM; in data set [3] it was 61.17 ± 0.02 µM. In data set [2], the CC50 was over 450 µM.
Regarding `Cc1c(O)cc2c(c1O)C(=O)c1ccccc1C2=O` [Compound 5, rubiadin], the results for the IC50 in data set [1] and in data set [3] were 21.5 µM and 31.91 ± 0.01 µM, respectively. For the same compound, the CC50 in data set [2] was 310 µM.
As for `Cc1ccc2c(c1)C(=O)c1ccccc1C2=O` [Compound 1, tectoquinone], the IC50 in data set [1] is 30.36 ± 0.01 µM; in data set [3], 48.56 ± 0.01 µM. In addition, the CC50 in data set [2] was over 100 µM.
For `COCc1c(O)cc2c(c1O)C(=O)c1ccc(O)c(O)c1C2=O` [Compound 6, 1,3,5,6-tetrahydroxy-2-(methoxymethyl)-9,10-anthraquinone], in data set [6], the CC50 at 48 h was 258 µM. The IC50 is 35.41 ± 0.01 µM in data set [4] (P. falciparum W2 strain, in vitro, mean of at least 3 independent experiments, read-out: IC50 W2) and 31.84 ± 0.01 µM in data set [5] (P. falciparum D6 strain, in vitro, mean of at least 3 independent experiments, read-out: IC50 D6).
Regarding `COc1c(C)c(O)cc2c1C(=O)c1ccccc1C2=O` [Compound 4, rubiadin-1-methyl ether], the IC50 in data set [1] was 45.07 ± 0.01 µM; in data set [3], 70.6 µM. Also, the CC50 in data set [2] is 208 µM.
With `CCN(CC)CCCC(C)Nc1ccnc2cc(Cl)ccc12` (centres unmarked) [chloroquine], the IC50 was 0.522 µM in data set [4] (W2, read-out: IC50 (W2)) and 0.0147 µM in data set [5] (D6, read-out: IC50 (D6)).
